Results on 14 compounds are retold here after patent US4166182A, “6-N-Propyl-8-methoxymethyl or methylmercaptomethylergolines and related compounds” (priority 1978, dated 1979).

Test [1] relates to Parkinsonism. The settings on record: in vivo; cited from earlier work.
For test [2], the system named is prolactin. The following applies: cited from earlier work.
Test [3] has as its system 6-hydroxydopamine-lesioned rats. Nature of the test: Turning behavior in 6-hydroxydopamine-lesioned (nigro-neostriatal-lesioned) rats. The following applies: for Latency of Effect: 1 mg./kg. (Table I); for responders at 1 mg/kg: Rattus norvegicus, read-out: % of Rats Exhibiting Turning Behavior. It is filed as in vivo, rat. The method, then: In this test, nigro-neostriatal-lesioned rats are employed, which are prepared by the procedure of Ungerstedt and Arbuthnott, Brain Res, 24, 485 (1970). A compound having dopamine agonist activity causes the rats to turn in circles contralateral to the side of the lesion. After a latency period, which varies from compound to compound, the number of turns is counted over a 15-minute period.
The compounds were dissolved in water and the aqueous solution injected into the rat by the intraperitoneal route.

Test [4] relates to prolactin. Nature of the test: Inhibition of serum prolactin in reserpine-treated male rats. Format: in vivo, Sprague-Dawley rat. The following applies: for Serum Prolactin Level: reserpine-pretreated, controls: Exp. 1 30.4 ± 3.4, Exp. 2 55.2 ± 4.1, Exp. 3 42.3 ± 7.3; for inhibition in vivo at 0.05 mg/kg: Rattus norvegicus, read-out: Percent Inhibition of Serum Prolactin. Also on record: Serum Prolactin Level: unit not given here. The method, then:
Adult male rats of the Sprague-Dawley strain weighing about 200 g. were housed in an air-conditioned room with controlled lighting (lights on 6 a.m.-8 p.m.) and fed lab chow and water ad libitum. Each rat received an intraperitoneal injection of 2.0 mg. of reserpine in aqueous suspension 18 hours before administration of the ergoline derivative. The purpose of the reserpine was to keep prolactin levels uniformly elevated. The compounds under test were dissolved in 10 percent ethanol at a concentration of 10 mcg/ml. and were injected intraperitoneally at a standard dose of 50 mcg/kg. Each compound was administered to a group of 10 rats, and a control group of 10 intact males received an equivalent amount of 10 percent ethanol. One hour after treatment all rats were killed by decapitation, and 150 μl aliquots of serum were assayed for prolactin. The results were evaluated statistically using Student's "t" test to calculate the level of significance, "p", of the changes in prolactin level.

The subject of test [5] is serotonin. Nature of the test: Serotonin agonism.
The subject of test [6] is dopamine receptors. The settings on record: cited from earlier work.
Where [7] appears, read: 50 mcg/kg IP, 1 hour after treatment.

Structures are written as SMILES. Counter-ions that a name gives are not always drawn. Like-named read-outs stand apart in the source and are kept apart here.

On to `CC(C)C[C@H]1C(=O)N2CCC[C@H]2[C@]2(O)O[C@](NC(=O)[C@@H]3C=C4c5cccc6[nH]c(Br)c(c56)C[C@H]4N(C)C3)(C(C)C)C(=O)N12` [2-bromo-α-ergokryptine], for which the “usefulness in the treatment of Parkinsonism (in words)” value in test [1] is reported as “useful in the treatment of Parkinsonism”. In test [2], the “activity as prolactin inhibitors (in words)” value is reported as “activity as prolactin inhibitors”.

For the compound `CCCN1C[C@H](CSC)C[C@@H]2c3cccc4[nH]c(Br)c(c34)C[C@H]21` [D-2-bromo-6-n-propyl-8β-methylmercaptomethylergoline mesylate], the “Duration of Effect” value in test [3] (IP, 1 mg./kg.) was 1 h. The “Latency of Effect” value in test [3] (IP) was 5 min. Besides, the responders at 1 mg/kg in test [3] (ip) came to 100%. Besides, the “Serum Prolactin Level” value in test [4] (setting [7]) was found to be 4.6 ± 0.4. In addition, the inhibition in vivo at 0.05 mg/kg in test [4] (ip, 1 h) is 89%.

As for `CCN1C[C@H](CSC)C[C@@H]2c3cccc4[nH]cc(c34)C[C@H]21` [D-6-ethyl-8β-methylmercaptomethylergoline mesylate], in test [3] (IP, 1 mg./kg.), the “Duration of Effect” value was no less than 2 h. For the same compound, the “Latency of Effect” value in test [3] (IP) worked out at 9 min. For the same compound, the responders at 1 mg/kg in test [3] (ip) came out at 100%. In addition, in test [4] (setting [7]), the “Serum Prolactin Level” value worked out at 3.9 ± 0.4. The inhibition in vivo at 0.05 mg/kg in test [4] (ip, 1 h) was found to be 91%.

Consider `CN1CC(CC#N)C[C@@H]2c3cccc4[nH]cc(c34)C[C@H]21` (stereo partly drawn) [D-6-methyl-8-cyanomethylergoline], for which the “activity as prolactin inhibitors (in words)” value in test [2] is reported as “activity as prolactin inhibitors”.

`CSC[C@@H]1C[C@@H]2c3cccc4[nH]cc(c34)C[C@H]2N(C)C1` [D-6-methyl-8β-methylmercaptomethylergoline mesylate, reference compound]: in test [3] (IP, 1 mg./kg.), the “Duration of Effect” value was ~ 2 hours. Also, the “Latency of Effect” value in test [3] (IP) is 30 to 45 min. Also, the responders at 1 mg/kg in test [3] (ip) is 50%. Also, the inhibition in vivo at 0.05 mg/kg in test [4] (ip, 1 h) is 58%.

In the case of `CCCN1C[C@H](CSC)C[C@@H]2c3cccc4[nH]cc(c34)C[C@H]21` [D-6-n-Propyl-8β-methylmercaptomethylergoline], the “serotonin agonist or antagonist (in words)” value in test [5] is “serotonin agonists rather than serotonin antagonists”.

With `CCCN1CC(CSC)=C[C@@H]2c3cccc4[nH]cc(c34)C[C@H]21` [D-6-n-propyl-8-methylmercaptomethyl-8-ergolene maleate], the “Duration of Effect” value in test [3] (IP, 1 mg./kg.) turned out to be 1 h. Further, the “Latency of Effect” value in test [3] (IP) worked out at 4 min. Further, the responders at 1 mg/kg in test [3] (ip) is 100%. Further, the “Serum Prolactin Level” value in test [4] (setting [7]) was found to be 3.9 ± 0.2. Besides, the inhibition in vivo at 0.05 mg/kg in test [4] (ip, 1 h) was 91%.

With `CCCN1C[C@H](COC)C[C@@H]2c3cccc4[nH]cc(c34)C[C@H]21` [D-6-n-propyl-8β-methoxymethylergoline methanesulfonate], the “Duration of Effect” value in test [3] (IP, 1 mg./kg.) is no less than 2 h. Also, the “Latency of Effect” value in test [3] (IP) was determined as 6 min. For the same compound, the responders at 1 mg/kg in test [3] (ip) was 100%. In addition, the “Serum Prolactin Level” value in test [4] (setting [7]) was 2.4 ± 0.2. The inhibition in vivo at 0.05 mg/kg in test [4] (ip, 1 h) turned out to be 96%.

As to `CCCN1C[C@H](CSC)C=C2c3cccc4[nH]cc(c34)C[C@H]21` [D-6-n-propyl-8β-methylmercaptomethyl-9-ergolene], the “Duration of Effect” value in test [3] (IP, 1 mg./kg.) is no less than 2 h. The “Latency of Effect” value in test [3] (IP) was found to be 4 min. In addition, in test [3] (ip), the responders at 1 mg/kg stood at 100%. Also, in test [4] (ip, 1 h), the inhibition in vivo at 0.05 mg/kg came out at 81%.

In the case of `CCCN1C[C@H](CSC)C[C@@H]2c3cccc4[nH]cc(c34)C[C@H]21` [D-6-n-propyl-8β-methylmercaptomethylergoline methanesulfonate], the responders at 1 mg/kg in test [3] (IP, 1 mg./kg., aqueous solution) amounted to 100%. The “times more potent in the turning behavior test than the corresponding D-6-methyl derivative” value in test [3] (from dose response curves) is reported as “about 30 times”. Moreover, the inhibition in vivo at 0.05 mg/kg in test [4] (50 mcg/kg IP, 1 hour after treatment, versus control of same experiment) came out at 95%. The “times more potent as a prolactin inhibitor than the corresponding D-6-methyl compound” value in test [4] (from dose response curves) was “about 100 times”.

Take `CCCN1C[C@H](C[S+](C)[O-])C[C@@H]2c3cccc4[nH]cc(c34)C[C@H]21` (stereo partly drawn) [D-6-n-propyl-8β-methylsulfinylmethylergoline mesylate]: in test [3] (IP, 1 mg./kg.), the “Duration of Effect” value came to 1 h. For the same compound, in test [3] (IP), the “Latency of Effect” value turned out to be 7 min. For the same compound, the responders at 1 mg/kg in test [3] (ip) is 100%. Besides, the inhibition in vivo at 0.05 mg/kg in test [4] (ip, 1 h) was 92%.

For the compound `CC(C)[C@H]1C(=O)N2CCC[C@H]2[C@]2(O)O[C@](NC(=O)[C@@H]3C[C@@H]4c5cccc6[nH]cc(c56)C[C@H]4N(C)C3)(C(C)C)C(=O)N12` [dihydroergocornine], the “activity as prolactin inhibitors (in words)” value in test [2] was “activity as prolactin inhibitors”.

Regarding `CC(C)[C@H]1C(=O)N2CCC[C@H]2[C@]2(O)O[C@](NC(=O)[C@@H]3C=C4c5cccc6[nH]cc(c56)C[C@H]4N(C)C3)(C(C)C)C(=O)N12` [ergocornine], the “dopamine receptor stimulation (in words)” value in test [6] was “stimulate dopamine receptors”. In test [2], the “activity as prolactin inhibitors (in words)” value was “activity as prolactin inhibitors”.

Take `CN1C[C@H](CC#N)C[C@@H]2c3cccc4[nH]c(Cl)c(c34)C[C@H]21` [lergotrile]: the “usefulness in the treatment of Parkinsonism (in words)” value in test [1] was “useful in the treatment of Parkinsonism”.
